Assays:
[1] = Equilibrium dialysis method for determining binding constants
Description: In the present invention, the method to determine binding constants utilizes equilibrium dialysis in the development of a multi-use parenteral formulation containing SBE-CD and a preservative. In particular, the method was applied in developing a parenteral formulation comprising the compound of Formula Ia, a cyclodextrin (SBE-CD) and a preservative (meta-cresol). This approach is applicable to compounds other than the compound of Formula Ia in developing parenteral formulations and is within the scope of this invention. […] The significance of this procedure is its ability to measure the binding constant of multiple compounds competing for binding with the cyclodextrin. The experimental dialysis data also provides an easily interpreted representation of binding in the formulation by visualizing the degree of interaction by the equilibrium established following dialysis.
Equilibrium dialysis permits calculation of binding constants by modeling the resultant diffusion rate across a semi-permeable membrane with an equilibrium end point. Equilibrium dialysis is performed by allowing the substrate in a solution containing bound substrate and ligand in a donor compartment of an equilibrium dialysis apparatus (cell) to equilibrate over time with an acceptor compartment. Ono, N., Hirayama, F., Arima, H., Uekama, K. “Determination of Stability Constant of β-Cyclodextrin Complexes Using the Membrane Permeation Technique and the Permeation Behavior of Drug Competing Agent-β-Cyclodextrin Ternary Systems” Eur. J. Pharm. Sci. 1999 9:133-139. The acceptor cell contains no ligand. The membrane is semi-permeable allowing the typically low molecular weight substrates to freely diffuse, while the cyclodextrin (MW=2163) remains in the donor compartment. Sampling from both compartments over time yields a time-concentration profile of substrate in both the donor and acceptor compartments of the dialysis cell.
A mathematical model describing the diffusion rate of drug across the membrane can be derived for systems containing two or more components in solution. The dialysis rate and binding constant for the substrates are obtained by resolving the equation using nonlinear curve fitting software. Depending on the interactions between the components it is possible to describe the competitive binding that occurs in the solution. The equilibrium binding constant is a measure of the relative concentration of meta-cresol bound to SBE-CD according to the chemical equilibrium equation below: S=meta-cresol, L=SBE-CD. S:L indicates the complex formed between meta-cresol and SBE-CD.
The initial experiments established the equilibrium dialysis flux rates for compound of Formula Ia and meta-cresol across the 500 MWCO dialysis membrane. Three different concentrations of compound of Formula Ia were initially loaded into the donor side of the dialysis well. Samples were withdrawn at various time intervals and concentration of free component was measured using HPLC. […] The smoothed line was a fit to the data using the model for a unitary system presented in the discussion. The equilibrium point for all these control experiments was reached after 50% of the total drug was distributed uniformly across the donor and acceptor sides of the well. This asymptotic approach to equilibrium was modeled and the dialysis rates were calculated, Table II.
The primary method of analyzing the data was to perform calculations from equilibrium dialysis data, as described below. In particular, the rate of diffusion across the membrane was calculated using the following equations:
The rate of diffusion from the donor phase is defined by the following relationship: [D]t−[D]eq=([D]0−[D]eq)e^(−2kt) (1)
Rate of diffusion into the Acceptor Phase: [D]eq−[D]t=[D]eqe^(−2kt) (2) wherein
The basis of calculation in the presence of SBE-CD is to assume that complexation occurs only in the donor phase according to the standard complexation reaction:
The value for CyDF may be substituted into equation 8. […]

[2] = Solubility analysis (solubility method) for binding constant with SBE-CD
Description: Traditional solubility methods were performed initially to determine the solubility and binding constants of compound of Formula Ia and preservative with SBE-CD.
Binding was calculated for meta-cresol using solubility analysis. The experiment was performed at different concentrations of compound of Formula Ia to determine if there was any effect from the presence of drug in solution on the meta-cresol binding constant. Meta-cresol solubility was measured in excess (saturated) meta-cresol and the equilibrium binding constant was calculated using the following equation:
[formula] Where St is the total solubility of meta-cresol, s0 is the inherent solubility of meta-cresol, Lt is the total concentration of SBE-CD (ligand) and K11 is the equilibrium binding constant of meta-cresol assuming a 1 to 1 binding stoichiometry.

[3] = Stability measurements (accelerated stability); conditions: 3 mg/mL meta-cresol, 100 mg/mL SBE-CD, 10 mgA/mL compound of Formula Ia
Description: Stability Measurements. Potential lead formulations were evaluated under various accelerated stability conditions in order to assess potency and purity of compound of Formula Ia, preservative content and SBE-CD content. For example, in one accelerated stability study, potential lead formulations were placed in stability ovens to measure short-term thermal stability. […] Purity and potency assays to measure compound of Formula Ia, as well as antimicrobial preservatives and SBE-CD content, were performed using validated HPLC methodology. SBE-CD was assayed using GTP 5984.

[4] = Calculated non-sequestered concentrations in formulations; conditions: preferred formulation: 10 mgA/mL compound, 63 mg/mL SBE-CD, 3.3 mg/mL meta-cresol, pH 4.4
Description: These constants were used to calculate the concentration of non-sequestered meta-cresol in the formulations tested for anti-microbial efficacy.
The appearance of a plateau at the higher concentrations is only due to the limitation in the bactericidal efficacy measurement method. As the method consists in evaluating the population not killed by the preservative, when the whole population is dead (i.e. none is detectable any more ˜100%) the figure quoted is of the form: a log reduction greater than a value usually between 3 and 5.
The formulations were analyzed for preservative effectiveness.

[5] = binary, approximate ratio 1:1, Compound of Formula Ia 1.0, SBE-CD 1.0 mM
[6] = binary, approximate ratio 1:2, Compound of Formula Ia 0.5, SBE-CD 1.0 mM
[7] = binary, approximate ratio 1:4, Compound of Formula Ia 0.25, SBE-CD 1.0 mM
[8] = ternary, approximate ratio 1:1, Compound of Formula Ia 1.0, Meta-cresol 1.0 mM, SBE-CD 1.0 mM
[9] = ternary, approximate ratio 1:2, Compound of Formula Ia 0.5, Meta-cresol 0.5 mM, SBE-CD 1.0 mM
[10] = ternary, approximate ratio 1:4, Compound of Formula Ia 0.25, Meta-cresol 0.25 mM, SBE-CD 1.0 mM

drug binding constant greater than preservative ([1]; binary systems with SBE-CD): 13 fold | Keq [1, 5]: 740 M⁻¹ | k [1, 5]: 0.015 h⁻¹ | Keq [1, 6]: 1092 M⁻¹ | k [1, 6]: 0.013 h⁻¹ | Keq [1, 7]: 1444 M⁻¹ | k [1, 7]: 0.012 h⁻¹ | binding constant with SBE-CD ([1]; equilibrium dialysis method, binary systems, drug ±352 M−1, n=3, preservative ±7 M−1): 1092 M⁻¹ | Keq [1, 8]: 690 M⁻¹ | k [1, 8]: 0.018 h⁻¹ | Keq [1, 9]: 720 M⁻¹ | k [1, 9]: 0.013 h⁻¹ | Keq [1, 10]: 520 M⁻¹ | k [1, 10]: 0.011 h⁻¹ | binding constant with SBE-CD [2]: 1040 M⁻¹ | binding constant ([2]; pH 4.4): 1040 M⁻¹ | CONTENT (% INTENT) ([3]; 5° C., 1 week, Amber-Treated): 97 % INTENT | CONTENT (% INTENT) ([3]; 5° C., 1 week, Amber-Untreated): 96 % INTENT | CONTENT (% INTENT) ([3]; 5° C., 3 weeks, Amber-Treated): 96 % INTENT | CONTENT (% INTENT) ([3]; 5° C., 3 weeks, Amber-Untreated): 95 % INTENT | CONTENT (% INTENT) ([3]; 5° C., 6 weeks, Amber-Treated): 95 % INTENT | CONTENT (% INTENT) ([3]; 5° C., 6 weeks, Amber-Untreated): 94 % INTENT | CONTENT (% INTENT) ([3]; 5° C., 12 weeks, Amber-Treated): 94 % INTENT | CONTENT (% INTENT) ([3]; 5° C., 12 weeks, Amber-Untreated): 94 % INTENT | CONTENT (% INTENT) ([3]; 50° C., 1 week, Amber-Treated): 95 % INTENT | CONTENT (% INTENT) ([3]; 50° C., 1 week, Amber-Untreated): 96 % INTENT | CONTENT (% INTENT) ([3]; 50° C., 3 weeks, Amber-Treated): 95 % INTENT | CONTENT (% INTENT) ([3]; 50° C., 3 weeks, Amber-Untreated): 93 % INTENT | CONTENT (% INTENT) ([3]; 50° C., 6 weeks, Amber-Treated): 96 % INTENT | CONTENT (% INTENT) ([3]; 50° C., 6 weeks, Amber-Untreated): 94 % INTENT | CONTENT (% INTENT) ([3]; 50° C., 12 weeks, Amber-Treated): 95 % INTENT | CONTENT (% INTENT) ([3]; 70° C., 1 week, Amber-Treated): 94 % INTENT | CONTENT (% INTENT) ([3]; 70° C., 1 week, Amber-Untreated): 94 % INTENT | CONTENT (% INTENT) ([3]; 70° C., 2 weeks, Amber-Treated): 94 % INTENT | CONTENT (% INTENT) ([3]; 70° C., 2 weeks, Amber-Untreated): 94 % INTENT | CONTENT (% INTENT) ([3]; 70° C., 3 weeks, Amber-Treated): 92 % INTENT | CONTENT (% INTENT) ([3]; 70° C., 3 weeks, Amber-Untreated): 94 % INTENT | CONTENT (% INTENT) ([3]; 70° C., 6 weeks, Amber-Treated): 92 % INTENT | CONTENT (% INTENT) ([3]; 70° C., 6 weeks, Amber-Untreated): 93 % INTENT | CONTENT (% INTENT) ([3]; 70° C., 12 weeks, Amber-Treated): 93 % INTENT | CONTENT (% INTENT) ([3]; 70° C., 12 weeks, Amber-Untreated): 93 % INTENT | CONTENT (% INTENT) ([3]; ICH Photostability, 1X ICH UV/FI, Amber-Treated): 92 % INTENT | CONTENT (% INTENT) ([3]; ICH Photostability, 1X ICH UV/FI, Amber-Untreated): 93 % INTENT | loss / potency decrease ([3]; after 12 weeks at 70° C., relative to 1 week at 5° C.): 3% | calculated non-sequestered concentration [4]: 1.4 mg/mL
Compound: COc1ccc(C(C)(C)C)cc1CN[C@H]1C2CCN(CC2)[C@H]1C(c1ccccc1)c1ccccc1 [compound of Formula Ia]

From patent publication US8183230B2, “Antimicrobial preservatives to achieve multi-dose formulation using beta-cyclodextrins for liquid dosage forms” (priority 2004, dated 2012)
